# Literature values, collected in patent US20090018125A1, “Pharmaceutical Composition and Its Use” (Tillotts Pharma AG, priority 2004, published 2009).
# Tested on: human squamous carcinoma line and multidrug-resistant and carboplatin-resistant variants
# Conditions: cells pre-treated with GLA
smiles,measurement,setting,value
"CCCCC/C=C\C/C=C\C/C=C\CCCCC(=O)O [GLA, gamma-linoleic acid]",enhancement of vincristine toxicity,,up to 40%
same,enhancement of toxicity of carboplatin,"depending on GLA concentration, human squamous carcinoma and carboplatin-resistant variant cell lines",≥ 50%
